Experimental data published in PubChem BioAssay AID256 (DTP/NCI, 2004).
Values joined by “and” are separate entries in the source; they are usually repeats but may differ in a detail not shown here. Identical values can stand only once. Toxic doses and inconclusive results are not listed. Rule for the calls: active = survival T/C of 150% or more; inactive = T/C below 125% in these data.

Test system: CD2F1 mice, L1210 leukemia ip, survival T/C
Assay: NCI In Vivo Anticancer Drug Screen. Data for tumor model L1210 Leukemia (intraperitoneal) in CD2F1 (CDF1) mice
Conditions: endpoint: mean survival time, higher = longer survival
Outline: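 In this screen, transplantable tumors were grown in mice given either the compound or its vehicle. Results were expressed as the treated measurement relative to the control measurement.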

[1] = dose: 100.0 mg/kg/injection, schedule: Q04DX003 (ip), vehicle: saline with Tween-80
[2] = dose: 200.0 mg/kg/injection, schedule: Q04DX003 (ip), vehicle: saline with Tween-80
[3] = dose: 400.0 mg/kg/injection, schedule: Q04DX003 (ip), vehicle: saline with Tween-80
[4] = dose: 100.0 mg/kg/injection, schedule: Q01DX001 (ip), vehicle: saline with Tween-80
[5] = dose: 100.0 mg/kg/injection, schedule: Q04DX002 (ip), vehicle: saline with Tween-80
[6] = dose: 200.0 mg/kg/injection, schedule: Q01DX001 (ip), vehicle: saline with Tween-80
[7] = dose: 200.0 mg/kg/injection, schedule: Q04DX002 (ip), vehicle: saline with Tween-80
[8] = dose: 400.0 mg/kg/injection, schedule: Q01DX001 (ip), vehicle: saline with Tween-80
[9] = dose: 25.0 mg/kg/injection, schedule: Q01DX009 (ip), vehicle: saline
[10] = dose: 50.0 mg/kg/injection, schedule: Q01DX009 (ip), vehicle: saline
[11] = dose: 100.0 mg/kg/injection, schedule: Q01DX009 (ip), vehicle: saline
[12] = dose: 100.0 mg/kg/injection, schedule: Q04DX003 (ip), vehicle: saline
[13] = dose: 12.5 mg/kg/injection, schedule: Q01DX009 (ip), vehicle: saline with Tween-80
[14] = dose: 25.0 mg/kg/injection, schedule: Q01DX009 (ip), vehicle: saline with Tween-80
[15] = dose: 50.0 mg/kg/injection, schedule: Q04DX003 (ip), vehicle: saline with Tween-80
[16] = dose: 12.5 mg/kg/injection, schedule: Q04DX003 (ip), vehicle: saline with Tween-80
[17] = dose: 25.0 mg/kg/injection, schedule: Q04DX003 (ip), vehicle: saline with Tween-80
[18] = dose: 100.0 mg/kg/injection, schedule: Q01DX001 (ip), vehicle: saline
[19] = dose: 200.0 mg/kg/injection, schedule: Q01DX001 (ip), vehicle: saline

Measured: T/C

CC(C)CCCC(C)C1CCC2C3CC=C4CC(C(=O)O)CCC4C3CCC12C (configuration not stated)
inactive: [1] 92 % of control | [2] 88 % of control | [3] 88 % of control

CCOCC(C(=O)OCC)C(=O)OCC
inactive: [1] 104 % of control | [2] 102 % of control | [3] 104 % of control

Cc1cc([N+](=O)[O-])ccc1NC(=S)NC(=O)COc1ccccc1
inactive: [4] 95 % of control | dose: 100.0 mg/kg/injection, schedule: Q01DX009 (ip), vehicle: saline with Tween-80 93 % of control and 102 % of control | [5] 95 % of control | [1] 98 % of control | [6] 89 % of control | dose: 200.0 mg/kg/injection, schedule: Q01DX009 (ip), vehicle: saline with Tween-80 93 % of control | [7] 91 % of control | [2] 97 % of control | [8] 87 % of control | dose: 400.0 mg/kg/injection, schedule: Q01DX009 (ip), vehicle: saline with Tween-80 92 % of control | [3] 93 % of control

CC(=O)OCC1OC(OC(C)=O)C(NC(=O)N(CCOCCCl)N=O)C(OC(C)=O)C1OC(C)=O (configuration not stated)
inactive: dose: 6.25 mg/kg/injection, schedule: Q01DX001 (ip), vehicle: distilled water + Tween-80 101 % of control | dose: 12.5 mg/kg/injection, schedule: Q01DX001 (ip), vehicle: distilled water + Tween-80 101 % of control | dose: 25.0 mg/kg/injection, schedule: Q01DX001 (ip), vehicle: distilled water + Tween-80 93 % of control | dose: 50.0 mg/kg/injection, schedule: Q01DX001 (ip), vehicle: distilled water + Tween-80 93 % of control | dose: 100.0 mg/kg/injection, schedule: Q01DX001 (ip), vehicle: distilled water + Tween-80 101 % of control | dose: 200.0 mg/kg/injection, schedule: Q01DX001 (ip), vehicle: distilled water + Tween-80 97 % of control | dose: 400.0 mg/kg/injection, schedule: Q01DX001 (ip), vehicle: distilled water + Tween-80 109 % of control

CN1CCCN(C)C1c1ccccc1
inactive: [9] 97 % of control | [10] 94 % of control | [11] 89 % of control | [12] 104 % of control

Cc1cc(C)c(CCl)cc1CCl
inactive: [13] 100 % of control | [14] 98 % of control | [15] 103 % of control

CC(C)c1ccc(NC(=O)Nc2cccc3ccccc23)cc1
inactive: [1] 102 % of control | [2] 91 % of control | [3] 91 % of control

O=c1[nH]cnc2n[nH]nc12
inactive: dose: 12.5 mg/kg/injection, schedule: Q01DX009 (ip), vehicle: Klucel (hydroxypropylcellulose) (HPC) 116 % of control | dose: 25.0 mg/kg/injection, schedule: Q01DX009 (ip), vehicle: Klucel (hydroxypropylcellulose) (HPC) 119 % of control | dose: 75.0 mg/kg/injection, schedule: Q01DX001 (ip), vehicle: other 103 % of control | dose: 150.0 mg/kg/injection, schedule: Q01DX001 (ip), vehicle: other 108 % of control | dose: 300.0 mg/kg/injection, schedule: Q01DX001 (ip), vehicle: other 108 % of control

c1ccc(CCN2COc3c(ccc4cccnc34)C2)cc1
inactive: [16] 102 % of control | [17] 91 % of control | [15] 98 % of control

CCC1(C)CCC2(C)C(CCC3C2CCCC3(C)CO)C1 (configuration not stated)
inactive: [4] 94 % of control | [6] 88 % of control | [8] 96 % of control

CC(=O)O[C@@H]1[C@@H](O)C2=C3[C@]4(C)[C@@H]1C(C)(C)C(=O)C[C@@H]4[C@]3(O)[C@H](OC(C)=O)[C@@]1(C[C@@H]1C)C2=O
inactive: dose: 3.12 mg/kg/injection, schedule: Q01DX009 (ip), vehicle: distilled water + Tween-80 102 % of control | dose: 3.12 mg/kg/injection, schedule: Q01DX009 (ip), vehicle: saline 96 % of control | dose: 6.25 mg/kg/injection, schedule: Q01DX009 (ip), vehicle: distilled water + Tween-80 105 % of control | dose: 6.25 mg/kg/injection, schedule: Q01DX009 (ip), vehicle: saline 102 % of control | dose: 12.5 mg/kg/injection, schedule: Q01DX009 (ip), vehicle: distilled water + Tween-80 100 % of control | dose: 12.5 mg/kg/injection, schedule: Q01DX009 (ip), vehicle: saline 104 % of control | dose: 25.0 mg/kg/injection, schedule: Q01DX009 (ip), vehicle: distilled water + Tween-80 100 % of control | [9] 104 % of control | dose: 50.0 mg/kg/injection, schedule: Q01DX009 (ip), vehicle: distilled water + Tween-80 103 % of control | [10] 108 % of control | dose: 100.0 mg/kg/injection, schedule: Q01DX009 (ip), vehicle: distilled water + Tween-80 96 % of control | [11] 111 % of control

C=C1C(=O)OC2(C)C(C)=C(C)C12C (configuration not stated)
inactive: [12] 101 % of control | dose: 200.0 mg/kg/injection, schedule: Q04DX003 (ip), vehicle: saline 112 % of control | dose: 400.0 mg/kg/injection, schedule: Q04DX003 (ip), vehicle: saline 108 % of control

CC(C)=CBr
inactive: dose: 100.0 mg/kg/injection, schedule: Q04DX003 (ip), vehicle: acetone 103 % of control | dose: 200.0 mg/kg/injection, schedule: Q04DX003 (ip), vehicle: acetone 94 % of control

O=S(=O)(Cc1ccccc1)CS(=O)(=O)Cc1ccccc1
inactive: [4] 98 % of control | [6] 97 % of control | [8] 86 % of control

CCOC(=O)C1=C(C)NC(C)=C(C(=O)OCC)C1c1ccccn1
inactive: dose: 50.0 mg/kg/injection, schedule: Q01DX009 (ip), vehicle: Klucel (hydroxypropylcellulose) (HPC) 94 % of control | dose: 100.0 mg/kg/injection, schedule: Q01DX009 (ip), vehicle: Klucel (hydroxypropylcellulose) (HPC) 91 % of control | dose: 200.0 mg/kg/injection, schedule: Q01DX009 (ip), vehicle: Klucel (hydroxypropylcellulose) (HPC) 89 % of control

O=C1CCCC2C1CCCC21OCCO1 (configuration not stated)
inactive: dose: 25.0 mg/kg/injection, schedule: Q04DX003 (ip), vehicle: saline 93 % of control | dose: 50.0 mg/kg/injection, schedule: Q04DX003 (ip), vehicle: saline 100 % of control | [12] 102 % of control

COC(COS(=O)(=O)c1ccc(Br)cc1)(c1ccccc1)c1ccccc1
inactive: [13] 95 % of control | [14] 88 % of control | dose: 50.0 mg/kg/injection, schedule: Q01DX009 (ip), vehicle: saline with Tween-80 88 % of control

CN1CCN(c2ccccc2N)CC1
inactive: dose: 5.0 mg/kg/injection, schedule: Q01DX009 (ip), vehicle: saline with Tween-80 108 % of control | dose: 10.0 mg/kg/injection, schedule: Q01DX009 (ip), vehicle: saline with Tween-80 108 % of control | dose: 20.0 mg/kg/injection, schedule: Q01DX009 (ip), vehicle: saline with Tween-80 102 % of control

CCN(CC)C(=S)SCCSC(=S)N(CC)CC
inactive: [5] 92 % of control | [7] 106 % of control | dose: 400.0 mg/kg/injection, schedule: Q04DX002 (ip), vehicle: saline with Tween-80 89 % of control

O=c1c2ccccc2nc2c3ccccc3nnn12
inactive: dose: 50.0 mg/kg/injection, schedule: Q04DX002 (ip), vehicle: saline with Tween-80 98 % of control | [5] 120 % of control | [7] 91 % of control

CC(Cc1ccc2c(c1)OCO2)NCC(O)c1ccc(O)c(O)c1 (configuration not stated)
inactive: [18] 103 % of control | [19] 109 % of control

O=[N+]([O-])CC1CCCCC1O (configuration not stated)
inactive: dose: 6.25 mg/kg/injection, schedule: Q01DX009 (ip), vehicle: saline with Tween-80 89 % of control | dose: 6.25 mg/kg/injection, schedule: Q04DX003 (ip), vehicle: saline with Tween-80 102 % of control | [13] 91 % of control | [16] 96 % of control | [14] 94 % of control | [17] 93 % of control

O=CNc1ccccc1OCc1ccccc1
inactive: [18] 100 % of control | [19] 97 % of control | dose: 400.0 mg/kg/injection, schedule: Q01DX001 (ip), vehicle: saline 103 % of control

Cc1c(Cl)c(C)c(Cl)c(C)c1Cl
inactive: [1] 101 % of control | [2] 96 % of control | [3] 101 % of control
